The values below come from ChEMBL document CHEMBL4033739, “Design and synthesis of novel δ opioid receptor agonists with an azatricyclodecane skeleton for improving blood-brain barrier penetration” (Bioorg Med Chem Lett, 2017).

The structures appear in SMILES notation.

T1 sequence (P41143 whole entry): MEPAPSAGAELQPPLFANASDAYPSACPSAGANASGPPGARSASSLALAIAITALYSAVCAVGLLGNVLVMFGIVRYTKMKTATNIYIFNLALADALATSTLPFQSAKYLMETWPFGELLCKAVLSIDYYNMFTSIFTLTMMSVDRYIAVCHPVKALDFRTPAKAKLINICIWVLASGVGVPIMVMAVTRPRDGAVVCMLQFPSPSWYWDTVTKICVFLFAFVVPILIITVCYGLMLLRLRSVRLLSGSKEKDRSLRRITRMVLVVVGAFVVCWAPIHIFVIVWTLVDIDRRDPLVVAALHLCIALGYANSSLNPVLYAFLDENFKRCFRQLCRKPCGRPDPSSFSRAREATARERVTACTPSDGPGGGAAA
T3 sequence (P35372 whole entry): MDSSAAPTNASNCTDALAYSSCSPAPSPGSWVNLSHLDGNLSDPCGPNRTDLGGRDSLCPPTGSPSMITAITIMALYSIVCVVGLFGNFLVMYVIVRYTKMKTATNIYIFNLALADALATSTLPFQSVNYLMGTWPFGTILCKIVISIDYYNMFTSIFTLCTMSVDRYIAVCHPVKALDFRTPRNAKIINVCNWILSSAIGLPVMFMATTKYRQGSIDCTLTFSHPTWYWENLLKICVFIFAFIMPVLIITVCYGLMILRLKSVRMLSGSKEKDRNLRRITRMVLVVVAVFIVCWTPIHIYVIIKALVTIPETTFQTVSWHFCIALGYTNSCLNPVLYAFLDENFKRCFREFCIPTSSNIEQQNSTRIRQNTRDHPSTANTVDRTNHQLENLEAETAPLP

The species entered for the first data set is Homo sapiens. Briefly: Selectivity index, ratio of Ki for human recombinant KOR expressed in CHO cell membranes to Ki for human recombinant DOR expressed in CHO cell membranes. The class given is cell-based.
Conditions: not given
With `O=C(c1ccccn1)N1C[C@H]2CC34CCC1C2C31CCN(CC2CC2)C4Cc2ccc(O)cc21` (stereo not given in full), the Ratio Ki is 1.2.

Turning to `O=C(c1ccccc1)N1C[C@H]2CC34CCC1C2C31CCN(CC2CC2)C4Cc2ccc(O)cc21` (stereo not given in full), the Ratio Ki turned out to be 1.7.

Consider `O=C(Nc1ccccc1)N1C[C@H]2CC34CCC1C2C31CCN(CC2CC2)C4Cc2ccc(O)cc21` (stereo not given in full), for which the Ratio Ki turned out to be 1.3.

On to `Oc1ccc2c(c1)C13CCN(CC4CC4)C(C2)C12CCC1C3[C@@H](CN1c1cnccn1)C2` (stereo not given in full), for which the Ratio Ki was determined as 1.3.

As to `O=C(Oc1ccccc1)N1C[C@H]2CC34CCC1C2C31CCN(CC2CC2)C4Cc2ccc(O)cc21` (stereo not given in full), the Ratio Ki was found to be 0.6.

A further data set has as its target T1, Delta-type opioid receptor (Homo sapiens, UniProt P41143). Briefly: Agonist activity at human recombinant DOR expressed in CHO cells assessed as cAMP accumulation. The class given is functional, cell-based.
Conditions: not given
For orientation: Changes in cAMP serve as a functional read-out for many G protein-coupled receptors.
As usually defined, the EC50 is the concentration that produces a half-maximal response. `O=C(c1ccccn1)N1C[C@H]2CC34CCC1C2C31CCN(CC2CC2)C4Cc2ccc(O)cc21` (stereo not given in full): the EC50 came out at 0.35 nM.

With `O=C(c1ccccc1)N1C[C@H]2CC34CCC1C2C31CCN(CC2CC2)C4Cc2ccc(O)cc21` (stereo not given in full), the EC50 turned out to be 0.31 nM.

For `O=C(Nc1ccccc1)N1C[C@H]2CC34CCC1C2C31CCN(CC2CC2)C4Cc2ccc(O)cc21` (stereo not given in full), the EC50 came to 1.5 nM.

For `Oc1ccc2c(c1)C13CCN(CC4CC4)C(C2)C12CCC1C3[C@@H](CN1c1cnccn1)C2` (stereo not given in full), the EC50 came to 0.43 nM.

Take `O=C(Oc1ccccc1)N1C[C@H]2CC34CCC1C2C31CCN(CC2CC2)C4Cc2ccc(O)cc21` (stereo not given in full): the 50% effective concentration (EC50) is 1.3 nM.

The next data set concerns the target T1, Delta-type opioid receptor. The experiment in a line: Displacement of [3H]DPDPE from human recombinant DOR expressed in CHO cell membranes.
Conditions: not given
On the technique in general: Displacement assays read how much labelled ligand stays bound in the presence of the test substance.
By Ki is commonly meant a measure of affinity in units of concentration, obtained from inhibition or displacement. Take `O=C(c1ccccn1)N1C[C@H]2CC34CCC1C2C31CCN(CC2CC2)C4Cc2ccc(O)cc21` (stereo not given in full): the Ki was determined as 0.458 nM.

`O=C(c1ccccc1)N1C[C@H]2CC34CCC1C2C31CCN(CC2CC2)C4Cc2ccc(O)cc21` (stereo not given in full): the Ki was 0.211 nM.

For `O=C(Nc1ccccc1)N1C[C@H]2CC34CCC1C2C31CCN(CC2CC2)C4Cc2ccc(O)cc21` (stereo not given in full), the Ki amounted to 0.265 nM.

Consider `Oc1ccc2c(c1)C13CCN(CC4CC4)C(C2)C12CCC1C3[C@@H](CN1c1cnccn1)C2` (stereo not given in full), for which the Ki was found to be 0.356 nM.

`O=C(Oc1ccccc1)N1C[C@H]2CC34CCC1C2C31CCN(CC2CC2)C4Cc2ccc(O)cc21` (stereo not given in full): the Ki stood at 0.833 nM.

The target of a further data set is T2, Kappa-type opioid receptor (Homo sapiens, UniProt P41145). Briefly: Agonist activity at human recombinant KOR expressed in CHO cells assessed as cAMP accumulation at 10 uM relative to U-69,593.
T2 sequence (P41145 whole entry): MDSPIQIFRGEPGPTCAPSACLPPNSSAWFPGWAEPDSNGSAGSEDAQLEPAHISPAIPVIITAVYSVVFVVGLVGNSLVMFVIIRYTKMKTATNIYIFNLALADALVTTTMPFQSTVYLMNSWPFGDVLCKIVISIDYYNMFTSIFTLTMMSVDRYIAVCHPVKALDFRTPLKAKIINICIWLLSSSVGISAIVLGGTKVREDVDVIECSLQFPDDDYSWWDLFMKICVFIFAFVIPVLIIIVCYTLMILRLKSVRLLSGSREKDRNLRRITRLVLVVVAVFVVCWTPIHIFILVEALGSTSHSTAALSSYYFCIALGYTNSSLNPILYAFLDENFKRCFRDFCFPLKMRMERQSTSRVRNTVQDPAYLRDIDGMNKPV
Conditions: not given
The class given is functional, cell-based.
As a reminder, the Emax is the size of the effect at its maximum, as opposed to the concentration needed. Consider `O=C(c1ccccn1)N1C[C@H]2CC34CCC1C2C31CCN(CC2CC2)C4Cc2ccc(O)cc21` (stereo not given in full), for which the maximum response (Emax) came to 18%.

Consider `O=C(c1ccccc1)N1C[C@H]2CC34CCC1C2C31CCN(CC2CC2)C4Cc2ccc(O)cc21` (stereo not given in full), for which the Emax was 5.5%.

Another data set addresses T3, Mu-type opioid receptor (Homo sapiens, UniProt P35372). Briefly: Agonist activity at human recombinant MOR expressed in CHO cells assessed as cAMP accumulation at 10 uM relative to DAMGO. The class given is functional, cell-based.
Conditions: not given
`O=C(c1ccccn1)N1C[C@H]2CC34CCC1C2C31CCN(CC2CC2)C4Cc2ccc(O)cc21` (stereo not given in full): the Emax is 6.5%.

Take `O=C(c1ccccc1)N1C[C@H]2CC34CCC1C2C31CCN(CC2CC2)C4Cc2ccc(O)cc21` (stereo not given in full): the Emax came to 4.7%.

Turning to `O=C(Nc1ccccc1)N1C[C@H]2CC34CCC1C2C31CCN(CC2CC2)C4Cc2ccc(O)cc21` (stereo not given in full), the Emax was 6.2%.

For the molecule `Oc1ccc2c(c1)C13CCN(CC4CC4)C(C2)C12CCC1C3[C@@H](CN1c1cnccn1)C2` (stereo not given in full), the Emax came out at 5.7%.

Regarding `O=C(Oc1ccccc1)N1C[C@H]2CC34CCC1C2C31CCN(CC2CC2)C4Cc2ccc(O)cc21` (stereo not given in full), the Emax came out at 5.6%.

The target in another data set is T3, Mu-type opioid receptor. The experiment in a line: Displacement of [3H]DAMGO from human recombinant MOR expressed in CHO cell membranes.
Conditions: not given
Take `O=C(c1ccccn1)N1C[C@H]2CC34CCC1C2C31CCN(CC2CC2)C4Cc2ccc(O)cc21` (stereo not given in full): the Ki is 0.726 nM.

In the case of `O=C(c1ccccc1)N1C[C@H]2CC34CCC1C2C31CCN(CC2CC2)C4Cc2ccc(O)cc21` (stereo not given in full), the inhibition constant (Ki) stood at 0.578 nM.

`O=C(Nc1ccccc1)N1C[C@H]2CC34CCC1C2C31CCN(CC2CC2)C4Cc2ccc(O)cc21` (stereo not given in full): the inhibition constant (Ki) was 0.545 nM.

Consider `Oc1ccc2c(c1)C13CCN(CC4CC4)C(C2)C12CCC1C3[C@@H](CN1c1cnccn1)C2` (stereo not given in full), for which the Ki came out at 0.813 nM.

With `O=C(Oc1ccccc1)N1C[C@H]2CC34CCC1C2C31CCN(CC2CC2)C4Cc2ccc(O)cc21` (stereo not given in full), the inhibition constant (Ki) was 0.826 nM.

In another data set the target is T2, Kappa-type opioid receptor. The experiment in a line: Agonist activity at human recombinant KOR expressed in CHO cells assessed as cAMP accumulation. The class given is functional, cell-based.
Conditions: not given
Consider `O=C(Nc1ccccc1)N1C[C@H]2CC34CCC1C2C31CCN(CC2CC2)C4Cc2ccc(O)cc21` (stereo not given in full), for which the concentration for a half-maximal effect (EC50) amounted to 0.3 nM.

Take `Oc1ccc2c(c1)C13CCN(CC4CC4)C(C2)C12CCC1C3[C@@H](CN1c1cnccn1)C2` (stereo not given in full): the EC50 came out at 0.2 nM.

For the molecule `O=C(Oc1ccccc1)N1C[C@H]2CC34CCC1C2C31CCN(CC2CC2)C4Cc2ccc(O)cc21` (stereo not given in full), the EC50 was determined as 2.5 nM.

Another data set has as its target T1, Delta-type opioid receptor. The experiment in a line: Agonist activity at human recombinant DOR expressed in CHO cells assessed as cAMP accumulation relative to SNC80. It is filed as functional, cell-based.
Conditions: not given
Take `O=C(c1ccccn1)N1C[C@H]2CC34CCC1C2C31CCN(CC2CC2)C4Cc2ccc(O)cc21` (stereo not given in full): the Emax was determined as 85%.

On to `O=C(c1ccccc1)N1C[C@H]2CC34CCC1C2C31CCN(CC2CC2)C4Cc2ccc(O)cc21` (stereo not given in full), for which the maximal effect (Emax) is 93%.

Regarding `O=C(Nc1ccccc1)N1C[C@H]2CC34CCC1C2C31CCN(CC2CC2)C4Cc2ccc(O)cc21` (stereo not given in full), the Emax amounted to 42%.

On to `Oc1ccc2c(c1)C13CCN(CC4CC4)C(C2)C12CCC1C3[C@@H](CN1c1cnccn1)C2` (stereo not given in full), for which the Emax came to 71%.

Turning to `O=C(Oc1ccccc1)N1C[C@H]2CC34CCC1C2C31CCN(CC2CC2)C4Cc2ccc(O)cc21` (stereo not given in full), the Emax amounted to 92%.

Test system in a further data set: not listed separately
Briefly: Apparent permeability at 10 uM incubated for 60 mins by RBT-24 kit. It is filed as physicochemical. To be noted: rat, not told.
The term Papp denotes a coefficient for how fast a substance crosses the barrier. For the molecule `O=C(c1ccccc1)N1C[C@H]2CC34CCC1C2C31CCN(CC2CC2)C4Cc2ccc(O)cc21` (stereo not given in full), the Papp at 1 h, 10 µM worked out at 18.5 ×10⁻⁶ cm/s.

In another data set the test system is Mus musculus. Briefly: Antinociceptive activity in sc dosed ICR mouse assessed as reduction in acetic acid-induced writhing response administered 20 mins before acetic acid injection and measured for 20 mins post acetic acid injection.
Conditions: not given
It is filed as functional. On the technique in general: An intraperitoneal irritant provokes the stretching counted in writhing tests.
A word on the ED50: it is the dose at which the effect has come halfway, by size or by number of responders. Take `O=C(c1ccccc1)N1C[C@H]2CC34CCC1C2C31CCN(CC2CC2)C4Cc2ccc(O)cc21` (stereo not given in full): the ED50 was determined as 1.15 mg/kg.

For the next data set, the target named is T2, Kappa-type opioid receptor. Briefly: Agonist activity at human recombinant KOR expressed in CHO cells assessed as cAMP accumulation relative to U-69,593.
Conditions: not given
The class given is functional, cell-based.
Consider `O=C(Nc1ccccc1)N1C[C@H]2CC34CCC1C2C31CCN(CC2CC2)C4Cc2ccc(O)cc21` (stereo not given in full), for which the Emax is 44%.

On to `Oc1ccc2c(c1)C13CCN(CC4CC4)C(C2)C12CCC1C3[C@@H](CN1c1cnccn1)C2` (stereo not given in full), for which the Emax came out at 24%.

Consider `O=C(Oc1ccccc1)N1C[C@H]2CC34CCC1C2C31CCN(CC2CC2)C4Cc2ccc(O)cc21` (stereo not given in full), for which the Emax was determined as 27%.

For another data set, the species on record is Homo sapiens. The experiment in a line: Selectivity index, ratio of Ki for human recombinant MOR expressed in CHO cell membranes to Ki for human recombinant DOR expressed in CHO cell membranes. The class given is cell-based.
Conditions: not given
Take `O=C(c1ccccn1)N1C[C@H]2CC34CCC1C2C31CCN(CC2CC2)C4Cc2ccc(O)cc21` (stereo not given in full): the Ratio Ki amounted to 1.6.

Consider `O=C(c1ccccc1)N1C[C@H]2CC34CCC1C2C31CCN(CC2CC2)C4Cc2ccc(O)cc21` (stereo not given in full), for which the Ratio Ki is 2.7.

Turning to `O=C(Nc1ccccc1)N1C[C@H]2CC34CCC1C2C31CCN(CC2CC2)C4Cc2ccc(O)cc21` (stereo not given in full), the Ratio Ki came out at 2.1.

As for `Oc1ccc2c(c1)C13CCN(CC4CC4)C(C2)C12CCC1C3[C@@H](CN1c1cnccn1)C2` (stereo not given in full), the Ratio Ki was determined as 2.3.

As to `O=C(Oc1ccccc1)N1C[C@H]2CC34CCC1C2C31CCN(CC2CC2)C4Cc2ccc(O)cc21` (stereo not given in full), the Ratio Ki stood at 1.

The target of a further data set is T2, Kappa-type opioid receptor. Briefly: Displacement of [3H]U-69,593 from human recombinant KOR expressed in CHO cell membranes.
Conditions: not given
Regarding `O=C(c1ccccn1)N1C[C@H]2CC34CCC1C2C31CCN(CC2CC2)C4Cc2ccc(O)cc21` (stereo not given in full), the Ki came out at 0.564 nM.

With `O=C(c1ccccc1)N1C[C@H]2CC34CCC1C2C31CCN(CC2CC2)C4Cc2ccc(O)cc21` (stereo not given in full), the Ki turned out to be 0.362 nM.

As to `O=C(Nc1ccccc1)N1C[C@H]2CC34CCC1C2C31CCN(CC2CC2)C4Cc2ccc(O)cc21` (stereo not given in full), the Ki is 0.336 nM.

With `Oc1ccc2c(c1)C13CCN(CC4CC4)C(C2)C12CCC1C3[C@@H](CN1c1cnccn1)C2` (stereo not given in full), the inhibitory constant (Ki) was 0.479 nM.

Consider `O=C(Oc1ccccc1)N1C[C@H]2CC34CCC1C2C31CCN(CC2CC2)C4Cc2ccc(O)cc21` (stereo not given in full), for which the Ki turned out to be 0.522 nM.
